Measurements: patent publication US20080171662A1, “Aminocarbonyl-Substituted Thiensulfonylamino(Thio)Carbonyl-Triazolin(Ethi)Ones, Processes For Their Preparation And Their Use” (priority 2004, published 2008)

melting point: 162 °C
Compound: CCOc1nn(C(=O)NS(=O)(=O)c2c(C(=O)N(C)C)csc2C)c(=O)n1C [Example 1, 5-ethoxy-4-methyl-2-[(4-dimethylaminocarbonyl-2-methylthien-3-yl)sulfonylaminocarbonyl]-2,4-dihydro-3H-1,2,4-triazol-3-one]
